Source: patent US11958861B2, “Spirocyclic lactams as JAK2 V617F inhibitors” (Incyte Corporation, priority 2021, dated 2024)
Where a name gives a salt, the structure may show the parent alone.

Assays:
[1] = target: T1, pseudo-kinase domain (JH2, amino-acids 536-812) of human V617F mutant JAK2 (Homo sapiens, UniProt O60674, F794H/V617F/W659A/W777A); assay: JAK2 LanthaScreen JH2-V617F Binding Assay; details: 1 hour at 25° C.
T1 construct: pseudo-kinase domain (JH2, amino-acids 536-812 with 3 surface mutations W659A, W777A, F794H); purchased BPS Bioscience 79498; host or cells: baculovirus expression system
T1 sequence (O60674 536-812 V617F/W659A/W777A/F794H): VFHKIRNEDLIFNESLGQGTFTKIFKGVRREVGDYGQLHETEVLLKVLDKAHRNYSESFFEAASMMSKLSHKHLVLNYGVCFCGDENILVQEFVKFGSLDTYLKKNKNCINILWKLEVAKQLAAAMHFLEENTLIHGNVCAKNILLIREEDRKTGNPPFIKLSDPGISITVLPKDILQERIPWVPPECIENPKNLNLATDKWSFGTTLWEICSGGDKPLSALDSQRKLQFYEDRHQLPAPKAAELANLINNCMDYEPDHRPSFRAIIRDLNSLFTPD
Procedure: Example C. JAK2 LanthaScreen JH2-V617F Binding Assay
(§1) JAK2 JH2-V617F binding assay utilizes pseudo-kinase domain (JH2, amino-acids 536-812 with 3 surface mutations W659A, W777A, F794H) of human V617F mutant JAK2 expressed as C-terminal His-Avi-tagged, biotinylated protein in a baculovirus expression system (BPS Bioscience, Catalog #79498). The assay was conducted in black 384-well polystyrene plates in a final reaction volume of 20 μL. JAK2 JH2-V617F (0.26 nM) was incubated with compounds (100 nL serially diluted in DMSO) in the presence of 50 nM Fluorescent JAK2-JH2 Tracer (MedChem Express Catalog #HY-102055) and 0.25 nM Streptavidin-Tb cryptate (Cisbio Part #610SATLB) in assay buffer (50 mM Tris, pH=7.5, 10 mM MgCl2, 0.01% Brij-35, 0.1% BSA, 1 mM EGTA, 5% Glycerol and 5 mM DTT). Non-specific binding was accessed in the presence of 2 mM ATP. After incubation for 1 hour at 25° C., LanthaScreen signals were read on a PHERAstar FS plate reader (BMG LABTECH). Data was analyzed with IDBS XLfit and GraphPad Prism 5.0 software using a four parameter dose response curve to determine IC50 for each compound.

[2] = target: T2, catalytic domain (JH1, amino acids 826-1132) of human JAK2 (Homo sapiens, UniProt O60674); assay: JAK2 LanthaScreen JH1 Binding Assay; details: 2 hours at 25° C.
T2 construct: catalytic domain (JH1, amino acids 826-1132) of human JAK2; purchased Carna Biosciences 08-445-20N; host or cells: baculovirus expression system
T2 sequence (O60674 826-1132): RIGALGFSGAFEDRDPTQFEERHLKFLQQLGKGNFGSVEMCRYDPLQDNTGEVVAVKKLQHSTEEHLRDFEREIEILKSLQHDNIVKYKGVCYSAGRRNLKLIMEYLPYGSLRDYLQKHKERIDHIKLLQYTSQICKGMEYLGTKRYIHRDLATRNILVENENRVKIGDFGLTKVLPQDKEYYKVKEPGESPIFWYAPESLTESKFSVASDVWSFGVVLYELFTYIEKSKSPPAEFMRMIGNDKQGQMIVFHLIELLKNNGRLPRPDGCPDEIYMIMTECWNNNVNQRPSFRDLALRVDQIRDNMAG
Procedure: Example A. JAK2 LanthaScreen JH1 Binding Assay
JAK2 JH1 binding assay utilizes catalytic domain (JH1, amino acids 826-1132) of human JAK2 expressed as N-terminal FLAG-tagged, biotinylated protein in a baculovirus expression system (Carna Biosciences, Product #08-445-20N). The assay was conducted in black 384-well polystyrene plates in a final reaction volume of 20 μL. JAK2 JH1 (1.5 nM) was incubated with compounds (100 nL serially diluted in DMSO) in the presence of 50 nM Fluorescent JAK2-JH1 Tracer and 0.5 nM Streptavidin-Tb cryptate (Cisbio Part #610SATLB) in assay buffer (50 mM Tris, pH=7.5, 10 mM MgCl2, 0.01% Brij-35, 0.1% BSA, 1 mM EGTA, 5% Glycerol and 5 mM DTT). Non-specific binding was accessed in the presence of 2 mM ATP. After incubation for 2 hours at 25° C., LanthaScreen signals were read on a PHERAstar FS plate reader (BMG LABTECH). Data was analyzed with IDBS XLfit and GraphPad Prism 5.0 software using a four parameter dose response curve to determine IC50 for each compound.

[3] = target: T3, catalytic domain (JH1, amino acids 808-1132) of human JAK2 (Homo sapiens, UniProt O60674); assay: JAK2 HTRF Enzyme Activity Assay; format: biochemical; details: ATP 30 μM, read-out: ENZ 30UMATP
T3 construct: catalytic domain (JH1, amino acids 808-1132) of human JAK2; His (N); purchased BPS Bioscience 40450; host or cells: baculovirus expression system
T3 sequence (O60674 808-1132): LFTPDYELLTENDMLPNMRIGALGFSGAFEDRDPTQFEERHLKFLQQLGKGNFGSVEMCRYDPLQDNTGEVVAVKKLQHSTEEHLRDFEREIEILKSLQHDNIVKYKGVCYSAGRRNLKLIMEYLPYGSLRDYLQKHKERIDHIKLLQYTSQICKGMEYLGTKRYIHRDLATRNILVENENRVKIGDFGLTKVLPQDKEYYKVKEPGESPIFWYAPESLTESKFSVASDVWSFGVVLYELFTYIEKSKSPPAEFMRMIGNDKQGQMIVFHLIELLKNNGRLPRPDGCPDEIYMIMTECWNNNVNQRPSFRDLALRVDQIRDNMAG
Procedure: Example D. JAK2 HTRF Enzyme Activity Assay
JAK2 enzyme activity assays utilize catalytic domain (JH1, amino acids 808-1132) of human JAK2 expressed as N-terminal His-tagged protein in a baculovirus expression system (BPS Bioscience, Catalog #40450). The assays was conducted in black 384-well polystyrene plates in a final reaction volume of 20 μL. JAK2 (0.015 nM) was incubated with compounds (100 nL serially diluted in DMSO) in the presence of ATP (30 μM or 1 mM) and 500 nM Biotin-labeled […] (SEQ ID NO.: 1) peptide (BioSource International, custom synthesis) in assay buffer (50 mM Tris, pH=7.5, 10 mM MgCl2, 0.01% Brij-35, 0.1% BSA, 1 mM EGTA, 5% Glycerol and 5 mM DTT) for 60 minutes at 25° C. The reactions were stopped by the addition of 10 μL of detection buffer (50 mM Tris, pH 7.8, 0.5 mg/mL BSA, 150 mM NaCl), supplemented with EDTA, LANCE Eu-W1024 anti-phosphotyrosine (PY20), (PerkinElmer, Catalog #AD0067) and Streptavidin SureLight APC (PerkinElmer Catalog #CR130-100), for a final concentration of 15 mM, 1.5 nM and 75 nM, respectively. HTRF signals were read after 30 minutes incubation at room temperature on a PHERAstar FS plate reader (BMG LABTECH). Data was analyzed with IDBS XLfit and GraphPad Prism 5.0 software using a four parameter dose response curve to determine IC50 for each compound.

[4] = target: T4, pseudo-kinase domain (JH2, amino-acids 536-812) of human Wild Type JAK2 (Homo sapiens, UniProt O60674, F794H/W659A/W777A); assay: JAK2 LanthaScreen JH2-WT Binding Assay; details: 1 hour at 25° C.
T4 construct: pseudo-kinase domain (JH2, amino-acids 536-812 with 3 surface mutations W659A, W777A, F794H); purchased BPS Bioscience 79463; host or cells: baculovirus expression system
T4 sequence (O60674 536-812 W659A/W777A/F794H): as the sequence (O60674 536-812 V617F/W659A/W777A/F794H) above, with F82V counted along it
Procedure: Example B. JAK2 LanthaScreen JH2-WT Binding Assay
as §1, with “JH2-WT” for “JH2-V617F”, “Wild Type” for “V617F mutant”, “#79463).” for “#79498).”, “JH2-WT (0.145” for “JH2-V617F (0.26”

CN1C(=O)C2(CCN(S(=O)(=O)C3(CC#N)CC3)C2)c2c1cnc1[nH]c(-c3cnn(C)c3)c(-c3ccc4c(cnn4C)c3)c21 (racemic) [Example 71, 2-(1-((6-Methyl-1-(1-methyl-1H-indazol-5-yl)-2-(1-methyl-1H-pyrazol-4-yl)-7-oxo-6,7-dihydro-3H-spiro[dipyrrolo[2,3-b:3′,2′-d]pyridine-8,3′-pyrrolidin]-1′-yl)sulfonyl)cyclopropyl)acetonitrile, trifluoroacetate salt]
IC50 [1]: ≤ 100 nM
IC50 [2]: 1250 to 2500 nM
IC50 [3]: 1250 to 2500 nM
IC50 [4]: ≤ 100 nM

CON1C(=O)C2(CCN(CC3(CC#N)CC3)C2)c2c1cnc1[nH]c(-c3cnn(C)c3)c(-c3ccc4c(cnn4C)c3)c21 (racemic) [Example 72, 2-(1-((6-Methoxy-1-(1-methyl-1H-indazol-5-yl)-2-(1-methyl-1H-pyrazol-4-yl)-7-oxo-6,7-dihydro-3H-spiro[dipyrrolo[2,3-b:3′,2′-d]pyridine-8,3′-pyrrolidin]-1′-yl)methyl)cyclopropyl)acetonitrile, trifluoroacetate salt]
IC50 [1]: 1250 to 2500 nM
IC50 [2]: > 2500 nM
IC50 [3]: 500 to 1250 nM
IC50 [4]: 500 to 1250 nM

CN1C(=O)C2(CCN(C3(C)CCS(=O)(=O)C3)CC2)c2c1cnc1[nH]c(-c3cnn(C)c3)c(-c3ccc4c(cnn4C)c3)c21 (racemic) [Example 78, 6-Methyl-1′-(3-methyl-1,1-dioxidotetrahydrothiophen-3-yl)-1-(1-methyl-1H-indazol-5-yl)-2-(1-methyl-1H-pyrazol-4-yl)-3,6-dihydro-7H-spiro[dipyrrolo[2,3-b:3′-2′-d]pyridine-8,4′-piperidin]-7-one]
IC50 [1]: ≤ 100 nM
IC50 [2]: 500 to 1250 nM
IC50 [3]: 500 to 1250 nM
IC50 [4]: ≤ 100 nM

COC(=O)NC1CC(CC#N)(N2CCC3(CC2)C(=O)N(C)c2cnc4[nH]c(-c5cnn(C)c5)c(-c5ccccc5)c4c23)C1 (single isomer, unassigned) [Example 27, Methyl (3-(cyanomethyl)-3-(6-methyl-2-(1-methyl-1H-pyrazol-4-yl)-7-oxo-1-phenyl-6,7-dihydro-3H-spiro[dipyrrolo[2,3-b:3′,2′-d]pyridine-8,4′-piperidin]-1′-yl)cyclobutyl)carbamate]
IC50 [1]: ≤ 100 nM
IC50 [2]: 100 to 500 nM
IC50 [3]: 100 to 500 nM
IC50 [4]: ≤ 100 nM

CCS(=O)(=O)N1CCC[C@]2(CC1)C(=O)N(C)c1cnc3[nH]c(-c4cnn(C(C)C)c4)c(-c4ccc5c(cnn5C)c4)c3c12 (single isomer, unassigned) [Example 53a]
IC50 [1]: 500 to 1250 nM
IC50 [2]: > 2500 nM
IC50 [3]: > 2500 nM
IC50 [4]: 100 to 500 nM

CCS(=O)(=O)N1CCC[C@@]2(CC1)C(=O)N(C)c1cnc3[nH]c(-c4cnn(C(C)C)c4)c(-c4ccc5c(cnn5C)c4)c3c12 (single isomer, unassigned) [Example 53b]
IC50 [1]: ≤ 100 nM
IC50 [2]: 100 to 500 nM
IC50 [3]: 100 to 500 nM
IC50 [4]: ≤ 100 nM

CN1C(=O)[C@]2(CCN(CC3(CC#N)CC3)C2)c2c1cnc1[nH]c(-c3cnn(C)c3)c(-c3ccc4c(cnn4C)c3)c21 (single isomer, unassigned) [Example 65]
IC50 [1]: ≤ 100 nM
IC50 [2]: > 2500 nM
IC50 [3]: > 2500 nM
IC50 [4]: ≤ 100 nM

CN1C(=O)[C@@]2(CCN(CC3(CC#N)CC3)C2)c2c1cnc1[nH]c(-c3cnn(C)c3)c(-c3ccc4c(cnn4C)c3)c21 (single isomer, unassigned) [Example 66]
IC50 [1]: ≤ 100 nM
IC50 [2]: 500 to 1250 nM
IC50 [3]: 500 to 1250 nM
IC50 [4]: ≤ 100 nM

CO[C@H]1CC[C@@](CC#N)(N2CCC3(CC2)C(=O)N(C)c2cnc4[nH]c(-c5cnn(C)c5)c(-c5ccc6c(cnn6C)c5)c4c23)CC1 (single isomer, unassigned) [Example 75a, 2-(4-Methoxy-1-(6-methyl-1-(1-methyl-1H-indazol-5-yl)-2-(1-methyl-1H-pyrazol-4-yl)-7-oxo-6,7-dihydro-3H-spiro[dipyrrolo[2,3-b:3′,2′-d]pyridine-8,4′-piperidin]-1′-yl)cyclohexyl)acetonitrile]
IC50 [1]: ≤ 100 nM
IC50 [2]: 100 to 500 nM
IC50 [3]: 100 to 500 nM
IC50 [4]: ≤ 100 nM

[2H]C([2H])([2H])n1ncc2cc(-c3c(-c4cnn(C)c4)[nH]c4ncc5c(c34)C3(CCN([C@](C)(CC#N)COC)CC3)C(=O)N5C)ccc21 (single isomer, unassigned) [Example 80a]
IC50 [1]: ≤ 100 nM
IC50 [2]: 1250 to 2500 nM
IC50 [3]: 1250 to 2500 nM
IC50 [4]: ≤ 100 nM

[2H]C([2H])([2H])n1ncc2cc(-c3c(-c4cnn(C)c4)[nH]c4ncc5c(c34)C3(CCN([C@@](C)(CC#N)COC)CC3)C(=O)N5C)ccc21 (single isomer, unassigned) [Example 80b]
IC50 [1]: ≤ 100 nM
IC50 [2]: 500 to 1250 nM
IC50 [3]: 500 to 1250 nM
IC50 [4]: ≤ 100 nM

[2H]C([2H])([2H])N1C(=O)C2(CCCN(S(=O)(=O)C3(C)CC3)CC2)c2c1cnc1[nH]c(-c3cnn(C(C)C)c3)c(-c3ccc4c(cnn4C)c3)c21 (single isomer, unassigned) [Example 103, 2′-(1-Isopropyl-1H-pyrazol-4-yl)-6′-(methyl-d3)-1′-(1-methyl-1H-indazol-5-yl)-1-((1-methylcyclopropyl)sulfonyl)-3′,6′-dihydro-7′H-spiro[azepane-4,8′-dipyrrolo[2,3-b:3′,2′-d]pyridin]-7′-one, trifluoroacetate salt]
IC50 [1]: ≤ 100 nM
IC50 [2]: 100 to 500 nM
IC50 [3]: 500 to 1250 nM
IC50 [4]: ≤ 100 nM
